Laboratory results from patent US20250034201A1, “PRODRUGS OF GANAXOLONE” (priority 2022, published 2025).

Experiments:
[1] = Stability in simulated gastric fluid (SGF); type: in vitro ADME; details: for half-life: 2 μg/mL, read-out: SGF t1/2
Method: (§1) The stability of exemplary compounds in simulated gastric fluid (SGF) and simulated intestinal fluid (SIF) was tested according to the following protocol.

[2] = Stability in simulated intestinal fluid (SIF); type: in vitro ADME; details: SIF with pancreatin pH 6.8, 37° C.; for half-life: simulated gi fluid, 2 μg/mL, read-out: SIF t1/2
Method: as §1

[3] = Rat liver microsomal stability; type: in vitro ADME; details: for half-life / microsomal CLint: rat liver microsomes 0.5 mg/mL, with NADPH; for half-life / microsomal CLint / Rat Liver Microsomal Stability no NADPH, % remain 1 h: compound 0.5 μM; for half-life: 37° C., read-out: Rat Liver Microsomal Stability t1/2; for microsomal CLint: read-out: Rat Liver Microsomal Stability CLint (uL/min/mg liver); for Comments: production of GNX (ganaxolone) in rat liver microsomes / Rat Liver Microsomal Stability no NADPH, % remain 1 h: rat liver microsomes
Method: (§2) For several compounds only human liver microsomal stability was tested. […] The microsomal assays were carried out with and without the addition of NADPH at a final concentration of 1 mM. For negative control samples, NADPH reagent was not added. […] Note that compounds undergo only Phase I metabolism in liver microsomes.
CLint=the intrinsic hepatic clearance (uL/min/mg), where CLint is equal to 0.693/(t1/2×Cmp)

in vitro [4] = type: in vitro ADME, human
Method: as §2

in vitro [5] = details: for Human plasma t90: 2 μg/mL, 37° C.; for Observations: stability / GNX production in human plasma / half-life: human, plasma
Method: The plasma stability of exemplary compounds was tested using rat, mice, dog, and human plasma, according to the following protocol. For each test compound, samples at a final concentration of 2 μg/mL were prepared in blank plasma of selected species. All samples were incubated at 37° C. on a 150-RPM orbital shaker, and an aliquot was removed at pre-determined time points (0, 15, 30, 60, and 120 minutes). Samples were precipitated with three volumes of acetonitrile containing propranolol as internal standard, and centrifuged for 10 min at 2000 g before LC/MS/MS analysis of the supernatant solutions.

[6] = SGF with pepsin pH 1.2, 37° C., 60 min
[7] = human liver microsomes 0.5 mg/mL, with NADPH, compound 0.5 μM, 37° C., read-out: Human Liver Microsomal Stability t1/2
[8] = human liver microsomes 0.5 mg/mL, with NADPH, compound 0.5 μM, read-out: Human Liver Microsomal Stability CLint (uL/min/mg liver) (converted)
[9] = human liver microsomes, no NADPH, compound 0.5 μM
[10] = simulated gi fluid, SGF with pepsin pH 1.2, 37° C.

SMILES | Comments: production of GNX (ganaxolone) in human liver microsomes (in vitro [4]; human liver microsomes) | half-life (in vitro [4]; [7]) | microsomal CLint (in vitro [4]; [8]) | Human Liver Microsomal Stability no NADPH, % remain 1 h (in vitro [4]; [9]) | further results
CC(=O)[C@H]1CC[C@H]2[C@@H]3CC[C@H]4C[C@](C)(OC(=O)CN5CCN(C)CC5)CC[C@]4(C)[C@H]3CC[C@]12C [Compound 102] | – | – | – | – | SGF (% remain, 60 min) [1, 6]: 56.3%; SIF (% remain, 60 min) [2]: 74.7%
CCOC(=O)CNCC(=O)O[C@]1(C)CC[C@@]2(C)[C@@H](CC[C@@H]3[C@@H]2CC[C@]2(C)[C@@H](C(C)=O)CC[C@@H]32)C1 [Compound 103] | – | – | – | – | SGF (% remain, 60 min) [1, 6]: 98.4%; SIF (% remain, 60 min) [2]: 75.9%
COCCN(C)CC(=O)O[C@]1(C)CC[C@@]2(C)[C@@H](CC[C@@H]3[C@@H]2CC[C@]2(C)[C@@H](C(C)=O)CC[C@@H]32)C1 [Compound 104] | GNX not produced in human or rat | 12 min | 116 µL/min/mg | 98% | Comments: production of GNX (ganaxolone) in rat liver microsomes [3]: GNX not produced in human or rat; half-life [3]: 7.41 min; microsomal CLint [3]: 187 µL/min/mg; Rat Liver Microsomal Stability no NADPH, % remain 1 h [3]: 99%
COC(=O)[C@@H](C)NCC(=O)O[C@]1(C)CC[C@@]2(C)[C@@H](CC[C@@H]3[C@@H]2CC[C@]2(C)[C@@H](C(C)=O)CC[C@@H]32)C1 [Compound 106] | GNX not produced in human | – | – | – | SGF (% remain, 60 min) ([1]; simulated gi fluid, 1 h, pH 1.2): 2.80%; half-life (in vitro [4]; human, microsomes): 4.57 min; microsomal CLint (in vitro [4]; human, microsomes): 303 µL/min/mg; Human Liver Microsomal Stability no NADPH, % remain 1 h (in vitro [4]; human, microsomes): 3.05%
CC(=O)[C@H]1CC[C@H]2[C@@H]3CC[C@H]4C[C@](C)(OC(=O)CNCCO)CC[C@]4(C)[C@H]3CC[C@]12C [Compound 107] | GNX not produced in human or rat | – | 21.4 µL/min/mg | 99% | Comments: production of GNX (ganaxolone) in rat liver microsomes [3]: GNX not produced in human or rat; half-life [3]: 21.9 min; microsomal CLint [3]: 63 µL/min/mg; Rat Liver Microsomal Stability no NADPH, % remain 1 h [3]: 98%; half-life (in vitro [4]; human, microsomes): 64.7 min
CC(=O)[C@H]1CC[C@H]2[C@@H]3CC[C@H]4C[C@](C)(OC(=O)CNCC(=O)OC(C)(C)C)CC[C@]4(C)[C@H]3CC[C@]12C [Compound 109] | – | – | – | – | SGF (% remain, 60 min) [1, 6]: 96.2%; SIF (% remain, 60 min) [2]: 92.9%
CC(=O)[C@H]1CC[C@H]2[C@@H]3CC[C@H]4C[C@](C)(OC(=O)COC(=O)CN5CCN(C)CC5)CC[C@]4(C)[C@H]3CC[C@]12C [Compound 208] | In human GNX not produced | 37 min | 37.4 µL/min/mg | 72% | Human plasma t90 (in vitro [5]): 26.6 min; Observations: stability / GNX production in human plasma (in vitro [5]): No GNX produced; half-life (in vitro [5]): 177 min
CC(=O)[C@H]1CC[C@H]2[C@@H]3CC[C@H]4C[C@](C)(OC(=O)COC(=O)OCCN(C)C)CC[C@]4(C)[C@H]3CC[C@]12C [Compound 220] | – | 11.8 min | 117 µL/min/mg | 4% | Human plasma t90 (in vitro [5]): 3.18 min; Observations: stability / GNX production in human plasma (in vitro [5]): In human no GNX; half-life (in vitro [5]): 21.1 min
CC(=O)[C@H]1CC[C@H]2[C@@H]3CC[C@H]4C[C@](C)(OC(=O)C[C@H](N)C(=O)O)CC[C@]4(C)[C@H]3CC[C@]12C [Compound 414] | In human no GNX produced | 178 min | 7.81 µL/min/mg | 82% | –
CC(=O)[C@H]1CC[C@H]2[C@@H]3CC[C@H]4C[C@](C)(OC(=O)CCN5C(=O)CCC5=O)CC[C@]4(C)[C@H]3CC[C@]12C [Compound 415] | In human small amount of GNX produced | 8.2 min | 169 µL/min/mg | 99% | –
CC(=O)[C@H]1CC[C@H]2[C@@H]3CC[C@H]4C[C@](C)(OC(=O)CC[C@H](N)C(=O)O)CC[C@]4(C)[C@H]3CC[C@]12C [Compound 416] | In human no GNX produced | 273 min | 5.08 µL/min/mg | 99% | –
CC(=O)[C@H]1CC[C@H]2[C@@H]3CC[C@H]4C[C@](C)(OC(=O)CCCN)CC[C@]4(C)[C@H]3CC[C@]12C [Compound 417] | In human no GNX produced | 494 min | 2.81 µL/min/mg | 99% | –
CC(=O)[C@H]1CC[C@H]2[C@@H]3CC[C@H]4C[C@](C)(OC(=O)CCCCN)CC[C@]4(C)[C@H]3CC[C@]12C [Compound 418] | In human no GNX produced | 451 min | 3.08 µL/min/mg | 99% | –
CC(=O)[C@H]1CC[C@H]2[C@@H]3CC[C@H]4C[C@](C)(OC(=O)OCCN(C)C)CC[C@]4(C)[C@H]3CC[C@]12C [Compound 419] | In human small amount of GNX produced | 39.5 min | 35.1 µL/min/mg | 88% | –
CC(=O)[C@H]1CC[C@H]2[C@@H]3CC[C@H]4C[C@](C)(OC(=O)CC(C)(C)C(=O)O)CC[C@]4(C)[C@H]3CC[C@]12C [Compound 420] | In human no GNX produced | 445 min | 3.11 µL/min/mg | 97.4% | –
COCCOCCOCC(=O)OCO[C@]1(C)CC[C@@]2(C)[C@@H](CC[C@@H]3[C@@H]2CC[C@]2(C)[C@@H](C(C)=O)CC[C@@H]32)C1 [Compound 503] | – | 5.65 min | 245 µL/min/mg | 11.6% | SGF (% remain, 60 min) [1, 6]: 68%; half-life [1, 10]: 118 min; SIF (% remain, 60 min) [2]: ~90%; half-life [2]: ~30 min; half-life (in vitro [5]): < 30 min
CC(=O)[C@H]1CC[C@H]2[C@@H]3CC[C@H]4C[C@](C)(OCOC(=O)CN5CCOCC5)CC[C@]4(C)[C@H]3CC[C@]12C [Compound 504] | – | 2.5 min | 554 µL/min/mg | 0.8% | SGF (% remain, 60 min) [1, 6]: 0.4%; half-life [1, 10]: 7.41 min; SIF (% remain, 60 min) [2]: 49.0%; half-life [2]: 88.4 min; Human plasma t90 (in vitro [5]): 2.54 min; half-life (in vitro [5]): 17.1 min
